Test results reported in patent US10472320B2, “Process to prepare phenolic ethylenediamine diacetic acid compounds” (Akzo Nobel Chemicals International B.V., priority 2015, dated 2019).

Settings: for appearance of extracted aqueous ligand solution (precipitate formation): after last methyl isobutyl ketone extraction; for concentration of o,o-HBED in the extracted aqueous ligand solution / concentration of o,o-HBED at which a clear solution was obtained after addition of water: expressed as H4-o,o-HBED; for concentration of o,o-HBED in the extracted aqueous ligand solution: after phenol extraction with methyl isobutyl ketone; for concentration of o,o-HBED at which a clear solution was obtained after addition of water: dilution with water after precipitation
Method: (§1) Phenol was extracted from the reaction mixture with methyl isobutyl ketone (250 ml and 3 times 125 ml).
as §1
(§2) Phenol was extracted from the reaction mixture with methyl isobutyl ketone (75 ml and 3 times 50 ml).
(§3) Phenol was extracted from the reaction mixture with methyl isobutyl ketone (100 ml and 3 times 50 ml).
as §3, §2
Phenol was extracted from the reaction mixture with methyl isobutyl ketone (85 ml and 3 times 50 ml).
as §2

SMILES: O=C(O)CN(CCN(CC(=O)O)Cc1ccccc1O)Cc1ccccc1O [Example 4, N,N′-di(2-hydroxybenzyl)ethylenediamine-N,N′-diacetic acid]
- appearance of extracted aqueous ligand solution (precipitate formation): remained clear without the formation of any precipitates
- concentration of o,o-HBED in the extracted aqueous ligand solution: approximately 22%

SMILES: O=C(O)CN(CCN(CC(=O)O)Cc1ccccc1O)Cc1ccccc1O [Example 5, N,N′-di(2-hydroxybenzyl)ethylenediamine-N,N′-diacetic acid]
- appearance of extracted aqueous ligand solution (precipitate formation): remained clear without the formation of any precipitates
- concentration of o,o-HBED in the extracted aqueous ligand solution: approximately 22%

SMILES: O=C(O)CN(CCN(CC(=O)O)Cc1ccccc1O)Cc1ccccc1O [Example 7, N,N′-di(2-hydroxybenzyl)ethylenediamine-N,N′-diacetic acid]
- appearance of extracted aqueous ligand solution (precipitate formation): remained clear without the formation of any precipitates
- concentration of o,o-HBED in the extracted aqueous ligand solution: approximately 25%

SMILES: O=C(O)CN(CCN(CC(=O)O)Cc1ccccc1O)Cc1ccccc1O [Example 1, N,N′-di(2-hydroxybenzyl)ethylenediamine-N,N′-diacetic acid]
- concentration of o,o-HBED in the extracted aqueous ligand solution: approximately 26%

SMILES: O=C(O)CN(CCN(CC(=O)O)Cc1ccccc1O)Cc1ccccc1O [Example 3, N,N′-di(2-hydroxybenzyl)ethylenediamine-N,N′-diacetic acid]
- appearance of extracted aqueous ligand solution (precipitate formation): became slightly turbid, but the solution could still be handled easily
- concentration of o,o-HBED in the extracted aqueous ligand solution: approximately 22%

SMILES: O=C(O)CN(CCN(CC(=O)O)Cc1ccccc1O)Cc1ccccc1O [Example 6, N,N′-di(2-hydroxybenzyl)ethylenediamine-N,N′-diacetic acid]
- concentration of o,o-HBED in the extracted aqueous ligand solution: approximately 22%

SMILES: O=C(O)CN(CCN(CC(=O)O)Cc1ccccc1O)Cc1ccccc1O [Comparative Example 2, N,N′-di(2-hydroxybenzyl)ethylenediamine-N,N′-diacetic acid, reference compound]
- appearance of extracted aqueous ligand solution (precipitate formation): turned turbid and a lot of product precipitated
- concentration of o,o-HBED at which a clear solution was obtained after addition of water: 9.6%

SMILES: O=C(O)CN(CCN(CC(=O)O)Cc1ccccc1O)Cc1ccccc1O [Comparative Example 3, N,N′-di(2-hydroxybenzyl)ethylenediamine-N,N′-diacetic acid, reference compound]
- appearance of extracted aqueous ligand solution (precipitate formation): turned turbid and a lot of product precipitated

SMILES: O=C(O)CN(CCN(CC(=O)O)Cc1ccccc1O)Cc1ccccc1O [Comparative Example 1, N,N′-di(2-hydroxybenzyl)ethylenediamine-N,N′-diacetic acid, reference compound]
- appearance of extracted aqueous ligand solution (precipitate formation): soon a large amount of precipitate was formed
- concentration of o,o-HBED at which a clear solution was obtained after addition of water: approximately 6.2%

SMILES: O=C(O)CN(CCN(CC(=O)O)Cc1ccccc1O)Cc1ccccc1O [Example 2, N,N′-di(2-hydroxybenzyl)ethylenediamine-N,N′-diacetic acid]
- appearance of extracted aqueous ligand solution (precipitate formation): became slightly turbid, but the solution could still be handled easily
- concentration of o,o-HBED in the extracted aqueous ligand solution: approximately 23%
